Molecules are shown by their SMILES.

The text below walks through data of patent US20230303493A1, “ANTIBACTERIAL ADJUVANTS AND APPLICATIONS THEREOF” (THE TRUSTEES OF PRINCETON UNIVERSITY, priority 2020, published 2023).

One assay deals with P. aeruginosa PA14. Briefly: IC50 of compounds in conjunction with colistin relative to P. aeruginosa (growth, absorbance at 600 nm). In kind it is cell-based. To be noted: Pseudomonas aeruginosa, PA14, 17 h. The protocol:
Various compounds of formula I in Example 1 above were tested to determine IC50 of the compounds in conjunction with colistin relative to P. aeruginosa. IC50 testing of the compounds was conducted to the following protocol. Overnight cultures of P. aeruginosa PA14 were back diluted into fresh LB to an OD600 of 2.5×10^−3. Using polypropylene 96 well plates (Corning 3879), the potential antibiotic adjuvant was assayed with a 3-fold dilution starting with a […]. The concentration of colistin was held constant at sublethal concentration ([…]), using a freshly prepared colistin stock and minimizing transfers of colistin-containing solutions. After 17 h of aerobic growth at 37° C., 300 rpm, the absorbance at 600 nm was recorded.
One may read the IC50 as the concentration needed to halve the response being measured. `C#Cc1ccc(OCCCCCC(=O)Nc2ccnc(C(F)(F)F)c2)cc1` [Compound S20, 6-(4-Ethynylphenoxy)-N-(2-(trifluoromethyl)pyridin-4-yl)hexanamide] yielded an IC50 of 15.5 µM.

Staying with this assay, now noted: Pseudomonas aeruginosa; P. aeruginosa PA14 in LB; colistin held constant at sublethal concentration (0.25 to 0.375 pg/mL); 3-fold dilution starting with a 250 concentration; 17 h aerobic growth at 37° C.; absorbance at 600 nm; read-out: IC50.
As to `CSc1ccc(OCCCCCC(=O)Nc2ccnc(C(F)(F)F)c2)cc1` [Compound S17, 6-(4-(Methylthio)phenoxy)-N-(2-(trifluoromethyl)pyridin-4-yl)hexanamide], the IC50 came out at 14 µM.
In the case of `CC(=O)c1ccccc1OCCCCCC(=O)Nc1ccnc(C(F)(F)F)c1` [Compound S32, 6-(2-Acetylphenoxy)-N-(2-(trifluoromethyl)pyridin-4-yl)hexanamide], the IC50 is 57 µM.
In the case of `O=C(CCCCCN1CCN(c2ccccc2)CC1)Nc1ccnc(C(F)(F)F)c1` [Compound S40, 6-(4-Phenylpiperazin-1-yl)-N-(2-(trifluoromethyl)pyridin-4-yl)hexanamide], the IC50 was 50 µM.
Still for that read-out and setting: the result for `O=C(CCCCCN1CCN(c2ccccn2)CC1)Nc1ccnc(C(F)(F)F)c1` [Compound S41, 6-(4-(Pyridin-2-yl)piperazin-1-yl)-N-(2-(trifluoromethyl)pyridin-4-yl)hexanamide] reads 95 µM; that for `O=C(CCCCCN1CCN(c2ccncc2)CC1)Nc1ccnc(C(F)(F)F)c1` [Compound S43, 6-(4-(Pyridin-4-yl)piperazin-1-yl)-N-(2-(trifluoromethyl)pyridin-4-yl)hexanamide], 75 µM; that for `O=C(CCCCCOc1ccc(C(=O)OCc2ccccc2)cc1)Nc1ccnc(C(F)(F)F)c1` [Compound S30, Benzyl 4-((6-oxo-6((2-(trifluoromethyl)pyridin-4-yl)amino)hexyl)oxy)benzoate], 2.6 µM.
As for `C#Cc1ccccc1OCCCCCC(=O)Nc1ccnc(C(F)(F)F)c1` [Compound S22, 6-(2-Ethynylphenoxy)-N-(2-(trifluoromethyl)pyridin-4-yl)hexanamide], the IC50 came out at 15.5 µM.
For `O=C(CCCCCOc1cccc2ccccc12)Nc1ccnc(C(F)(F)F)c1` [Compound S39, 6-(Naphthalen-1-yloxy)-N-(2-(trifluoromethyl)pyridin-4-yl)hexanamide], the IC50 came out at 15 µM.
On to `O=C(CCCCCN1CCN(c2cccnc2)CC1)Nc1ccnc(C(F)(F)F)c1` [Compound S42, 6-(4-(Pyridin-3-yl)piperazin-1-yl)-N-(2-(trifluoromethyl)pyridin-4-yl)hexanamide], for which the IC50 was determined as 70 µM.
Same read-out and setting: next, `O=C(CCCCCOc1ccc2ccccc2c1)Nc1ccnc(C(F)(F)F)c1` [Compound S38, 6-(Naphthalen-2-yloxy)-N-(2-(trifluoromethyl)pyridin-4-yl)hexanamide]: 2.6 µM; `CC(C)(C)c1ccc(OCCCCCC(=O)Nc2ccnc(C(F)(F)F)c2)cc1` [Compound S27, 6-(4-(tert-Butyl)phenoxy)-N-(2-(trifluoromethyl)pyridin-4-yl)hexanamide]: 2.6 µM.
Consider `COC(=O)c1ccc(OCCCCCC(=O)Nc2ccnc(C(F)(F)F)c2)cc1` [Compound S34, Methyl 4-((6-oxo-6-((2-(trifluoromethyl)pyridin-4-yl)amino)hexyl)oxy)benzoate], for which the IC50 was determined as 88 µM.
On the same count and under the same terms, the result for `CC(C)(C)c1cccc(OCCCCCC(=O)Nc2ccnc(C(F)(F)F)c2)c1` [Compound S28, 6-(3-(tert-Butyl)phenoxy)-N-(2-(trifluoromethyl)pyridin-4-yl)hexanamide] reads 0.8 µM.
